≈ marks a conversion by molar mass, not a printed value. Where two headings read alike, the source gives them in different places.
Legend:
Assay in all cases: Antibacterial activity MIC assay (two-fold dilution agar plating)
Format in all cases: cell-based
Proteus mirabilis = settings: Proteus mirabilis, ATCC49565, Proteus mirabilis ATCC 49565; read-out: Minimal Inhibitory Concentration (MIC)
Procedure: (§1) Antibacterial Activity-Evaluating Method (MIC Assay)
(§2) In this study, the compounds of the present invention were tested for their antibacterial activities by using two-fold dilution agar plating method and Denley Multipoint Inoculator A400 according to the guidelines of the CLSI/NCCLS standard. The tested strains were amplified by hydrolyzed casein peptone (Mueller-Hinton Agar) broth and Brain and Heart Infusion. The strains used in this study were bacterial strains that were purchased from ATCC or clinically isolated in Chinese hospitals. Aztreonam, polymyxin or levofloxacin was used as positive control. The drugs were diluted with hydrolyzed casein peptone broth to the desired concentrations including 128.0, 64.0, 32.0, 16.0, 8.0, 4.0, 2.0, 1.0, 0.5, 0.25, 0.125, 0.06 and 0.03 μg/mL, and then placed respectively into each well and mixed thoroughly. After inoculation, the tested strains were incubated for 18 hours at a constant temperature of 35° C., and their growth levels were observed. The drug concentration with no microbial growth in the well was recorded as the lowest Minimal Inhibitory Concentration (MIC).

Serratia marcescens = settings: ATCC21074; Serratia marcescens ATCC 21074; read-out: Minimal Inhibitory Concentration (MIC)
Procedure: as §1, §2

Salmonella typhi = settings: Salmonella enterica, TYPHI, read-out: Minimal Inhibitory Concentration (MIC)
Procedure: as §1, §2

Citrobacter freundii = settings: ATCC43864; Citrobacter freundii ATCC 43864; read-out: Minimal Inhibitory Concentration (MIC)
Procedure: as §1, §2

Escherichia coli = settings: Escherichia coli, read-out: Minimal Inhibitory Concentration (MIC)
Procedure: as §1, §2

Pseudomonas aeruginosa = settings: read-out: Minimal Inhibitory Concentration (MIC)
Procedure: as §1, §2

[1] = tested on: Stenotrophomonas maltophilia; settings: ATCC13636; Stenotrophomonas maltophilia ATCC 13636; read-out: Minimal Inhibitory Concentration (MIC)
Procedure: as §1, §2

Acinetobacter baumannii = settings: Acinetobacter baumannii, read-out: Minimal Inhibitory Concentration (MIC)
Procedure: as §1, §2

Proteus vulgaris = settings: Proteus vulgaris, ATCC29905, Proteus vulgaris ATCC 29905; read-out: Minimal Inhibitory Concentration (MIC)
Procedure: as §1, §2

Enterobacter cloacae = settings: read-out: Minimal Inhibitory Concentration (MIC)
Procedure: as §1, §2

Shigella flexneri = settings: ATCC12022; Shigella flexneri ATCC 12022; read-out: Minimal Inhibitory Concentration (MIC)
Procedure: as §1, §2

Enterobacter aerogenes = settings: Klebsiella aerogenes, ATCC13048; Enterobacter aerogenes ATCC 13048; read-out: Minimal Inhibitory Concentration (MIC)
Procedure: as §1, §2

Klebsiella Pneumoniae = settings: Klebsiella pneumoniae, read-out: Minimal Inhibitory Concentration (MIC)
Procedure: as §1, §2

Providencia rettgeri = settings: Providencia rettgeri, ATCC31052, Providencia rettgeri ATCC 31052; read-out: Minimal Inhibitory Concentration (MIC)
Procedure: as §1, §2

[2] = ATCC25922, Escherichia coli ATCC 25922, ESBLs(−)
[3] = ATCC35218, Escherichia coli ATCC 35218, ESBLs(+)
[4] = Escherichia coli 08-85, mcr-1(+)
[5] = Escherichia coli 13-43, mcr-1(+)
[6] = Escherichia coli 13-66, mcr-1(+)
[7] = Escherichia coli 16-1, ESBLs(+)
[8] = Escherichia coli 16-7, ESBLs(−)
[9] = Escherichia coli 17-R28, CRE, NDM-1(+)
[10] = Escherichia coli CDC1001728, NDM-1(+)
[11] = ATCC27853, Pseudomonas aeruginosa ATCC 27853
[12] = ATCC19606, Acinetobacter baumannii ATCC 19606
[13] = ATCC43560, Enterobacter cloacae ATCC 43560
[14] = Enterobacter cloacae CDC1000654
[15] = ATCC700603, Klebsiella Pneumoniae ATCC 700603, ESBLs(+)
[16] = ATCCBAA2146, Klebsiella Pneumoniae ATCC BAA-2146, NDM-1(+)
[17] = Klebsiella Pneumoniae 09-20, mcr-1(+)
[18] = Klebsiella Pneumoniae 16-2, ESBLs(−)
[19] = Klebsiella Pneumoniae 16-14, ESBLs(+)
[20] = Klebsiella Pneumoniae 17-R27, CRE

| Compound | MIC (Proteus mirabilis) | MIC (Serratia marcescens) | MIC (Salmonella typhi) | MIC (Citrobacter freundii) | MIC (Escherichia coli; [2]) | MIC (Escherichia coli; [3]) | MIC (Escherichia coli; [4]) | MIC (Escherichia coli; [5]) | MIC (Escherichia coli; [6]) | MIC (Escherichia coli; [7]) | MIC (Escherichia coli; [8]) | MIC (Escherichia coli; [9]) | MIC (Escherichia coli; [10]) | MIC (Pseudomonas aeruginosa; [11]) | MIC (Pseudomonas aeruginosa; Pseudomonas aeruginosa 16-11) | MIC (Pseudomonas aeruginosa; Pseudomonas aeruginosa PAO1) | MIC [1] | MIC (Acinetobacter baumannii; [12]) | MIC (Acinetobacter baumannii; Acinetobacter baumannii 16-16) | MIC (Acinetobacter baumannii; Acinetobacter baumannii 16-33) | further results |
| --- | --- | --- | --- | --- | --- | --- | --- | --- | --- | --- | --- | --- | --- | --- | --- | --- | --- | --- | --- | --- | --- |
| CC(C)[C@H](O/N=C(\C(=O)N[C@@H]1C(=O)N(OS(=O)(=O)O)C1(C)C)c1csc(N)n1)C(=O)O [Compound A-4] | ≤ 0.03 µg/mL | 0.25 µg/mL (≈ 0.521 µM) | 0.12 µg/mL (≈ 0.25 µM) | 0.12 µg/mL (≈ 0.25 µM) | 0.25 µg/mL (≈ 0.521 µM) | 0.12 µg/mL (≈ 0.25 µM) | 0.25 µg/mL (≈ 0.521 µM) | 0.25 µg/mL (≈ 0.521 µM) | 0.25 µg/mL (≈ 0.521 µM) | 0.12 µg/mL (≈ 0.25 µM) | 0.25 µg/mL (≈ 0.521 µM) | 8 µg/mL (≈ 16.7 µM) | 0.5 µg/mL (≈ 1.04 µM) | 8 µg/mL (≈ 16.7 µM) | 8 µg/mL (≈ 16.7 µM) | 4 µg/mL (≈ 8.34 µM) | 8 µg/mL (≈ 16.7 µM) | 64 µg/mL (≈ 133 µM) | > 64 µg/mL | 32 µg/mL (≈ 66.7 µM) | MIC (Proteus vulgaris): ≤ 0.03 µg/mL; MIC (Enterobacter cloacae; [13]): 0.12 µg/mL (≈ 0.25 µM); MIC (Enterobacter cloacae; [14]): 1 µg/mL (≈ 2.09 µM); MIC (Shigella flexneri): 0.25 µg/mL (≈ 0.521 µM); MIC (Enterobacter aerogenes): 0.5 µg/mL (≈ 1.04 µM); MIC (Klebsiella Pneumoniae; [15]): 2 µg/mL (≈ 4.17 µM); MIC (Klebsiella Pneumoniae; [16]): 0.5 µg/mL (≈ 1.04 µM); MIC (Klebsiella Pneumoniae; [17]): 0.12 µg/mL (≈ 0.25 µM); MIC (Klebsiella Pneumoniae; [18]): 1 µg/mL (≈ 2.09 µM); MIC (Klebsiella Pneumoniae; [19]): 0.25 µg/mL (≈ 0.521 µM); MIC (Klebsiella Pneumoniae; [20]): 0.25 µg/mL (≈ 0.521 µM); MIC (Providencia rettgeri): ≤ 0.03 µg/mL |
| CC(C)[C@@H](O/N=C(\C(=O)N[C@@H]1C(=O)N(OS(=O)(=O)O)C1(C)C)c1csc(N)n1)C(=O)O [Compound A-5] | 1 µg/mL (≈ 2.09 µM) | 32 µg/mL (≈ 66.7 µM) | 32 µg/mL (≈ 66.7 µM) | 16 µg/mL (≈ 33.4 µM) | 16 µg/mL (≈ 33.4 µM) | 16 µg/mL (≈ 33.4 µM) | 32 µg/mL (≈ 66.7 µM) | 32 µg/mL (≈ 66.7 µM) | 16 µg/mL (≈ 33.4 µM) | 8 µg/mL (≈ 16.7 µM) | 32 µg/mL (≈ 66.7 µM) | > 64 µg/mL | 32 µg/mL (≈ 66.7 µM) | > 64 µg/mL | > 64 µg/mL | > 64 µg/mL | > 64 µg/mL | > 64 µg/mL | > 64 µg/mL | > 64 µg/mL | MIC (Proteus vulgaris): 4 µg/mL (≈ 8.34 µM); MIC (Enterobacter cloacae; [13]): 16 µg/mL (≈ 33.4 µM); MIC (Enterobacter cloacae; [14]): > 64 µg/mL; MIC (Shigella flexneri): 64 µg/mL (≈ 133 µM); MIC (Enterobacter aerogenes): 32 µg/mL (≈ 66.7 µM); MIC (Klebsiella Pneumoniae; [15]): 64 µg/mL (≈ 133 µM); MIC (Klebsiella Pneumoniae; [16]): > 64 µg/mL; MIC (Klebsiella Pneumoniae; [17]): 16 µg/mL (≈ 33.4 µM); MIC (Klebsiella Pneumoniae; [18]): 32 µg/mL (≈ 66.7 µM); MIC (Klebsiella Pneumoniae; [19]): 16 µg/mL (≈ 33.4 µM); MIC (Klebsiella Pneumoniae; [20]): 32 µg/mL (≈ 66.7 µM); MIC (Providencia rettgeri): 4 µg/mL (≈ 8.34 µM) |

Reference: US12497393B2, “β-lactam compound, use thereof and preparation method therefor” (priority 2020, dated 2025)
